Experimental data: ChEMBL document CHEMBL4270617, “Design, synthesis, antimicrobial, antiquorum-sensing and antitumor evaluation of new series of pyrazolopyridine derivatives” (Eur J Med Chem, 2018)
≈ marks a conversion by molar mass, not a printed value.

What was measured:
Mus musculus [1] = assay: Toxicity in Swiss albino mouse implanted with mouse EAC cells assessed as RBC count at 0.5 mg/mouse administered for 9 days (reference value: 3.59 10^6/mm3); format: organism-based; settings: in vivo, 216 h
Pseudomonas aeruginosa = assay: Antibacterial activity against Pseudomonas aeruginosa PAO1 after 24 hrs by two-fold serial dilution method; format: functional; settings: PAO1, 24 h
[2] = system: Chromobacterium violaceum; assay: Inhibition of quorum sensing system in Chromobacterium violaceum ATCC 12472 assessed as diameter of violacein pigment inhibition at 5 mg/ml after 48 hrs
Ehrlich [3] = assay: Antitumor activity against mouse EAC cells allografted in Swiss mouse assessed as viable tumor cell count at 0.5 mg/mouse administered for 9 days (reference value: 77.41 10^6/ml); format: functional
[4] = Displacement of methyl green from DNA (unknown origin) incubated in dark for 24 hrs
Bacillus cereus = assay: Antibacterial activity against Bacillus cereus UW 85 after 24 hrs by two-fold serial dilution method; format: functional; settings: UW 85, 24 h
Aspergillus flavus = assay: Antifungal activity against Aspergillus flavus 3375 after 48 hrs by two-fold serial dilution method; format: functional; settings: Aspergillus flavus, 3375, 48 h
Ehrlich [5] = assay: Antitumor activity against mouse EAC cells allografted in Swiss mouse assessed as increase in life span at 0.5 mg/mouse administered for 9 days relative to control; format: functional
Escherichia coli = assay: Antibacterial activity against Escherichia coli ATCC 12435 after 24 hrs by two-fold serial dilution method; format: functional; settings: ATCC 12435, 24 h
WI-38 = assay: Cytotoxicity against human W138 cells after 48 hrs by MTT assay; format: cell-based; settings: WI-38, 48 h
HeLa = assay: Antitumor activity against human HeLa cells assessed as inhibition of cell proliferation after 48 hrs by MTT assay; format: functional, cell-based; settings: read-out: IC50
MCF7 = assay: Antitumor activity against human MCF7 cells assessed as inhibition of cell proliferation after 48 hrs by MTT assay; format: functional, cell-based; settings: MCF7, 48 h
Aspergillus fumigatus = assay: Antifungal activity against Aspergillus fumigatus 293 after 48 hrs by two-fold serial dilution method; format: functional; settings: Aspergillus fumigatus, 293, 48 h
Mus musculus [6] = assay: Toxicity in Swiss albino mouse implanted with mouse EAC cells assessed as hemoglobin level at 0.5 mg/mouse administered for 9 days (reference value: 7.05 g/dl); format: organism-based; settings: in vivo, 216 h
WISH = assay: Cytotoxicity against human WISH cells after 48 hrs by MTT assay; format: cell-based
Candida albicans = assay: Antifungal activity against Candida albicans after 48 hrs by two-fold serial dilution method; format: functional
Mus musculus [7] = assay: Toxicity in Swiss albino mouse implanted with mouse EAC cells assessed as WBC count at 0.5 mg/mouse administered for 9 days (reference value: 20.53 10^3/mm3); format: organism-based; settings: in vivo, 216 h
HepG2 = assay: Antitumor activity against human HepG2 cells assessed as inhibition of cell proliferation after 48 hrs by MTT assay; format: functional, cell-based; settings: HepG2, 48 h
Ehrlich [8] = assay: Antitumor activity against mouse EAC cells allografted in Swiss mouse assessed as tumor volume at 0.5 mg/mouse administered for 9 days (reference value: 10.15 mL); format: functional
Ehrlich [9] = assay: Antitumor activity against mouse EAC cells allografted in Swiss mouse assessed as mean survival time at 0.5 mg/mouse administered for 9 days (reference value: 18 day); format: functional
Staphylococcus aureus = assay: Antibacterial activity against Staphylococcus aureus ATCC 29213 after 24 hrs by two-fold serial dilution method; format: functional; settings: ATCC 29213, 24 h

For `CCOC(=O)C1=C(N/C=N/c2cccnc2Cl)Nc2[nH]nc(C)c2C1c1ccc(N(C)C)cc1` (centres undefined), which Activity (Mus musculus [1]) is on record?
The Activity was 5.78 ×10⁶ /mm3.

What about the MIC (Pseudomonas aeruginosa) of the same compound?
Its MIC is 65.1 µM.

What about the diameter of the inhibition zone (DIZ) [2] of the same compound?
Its diameter of the inhibition zone (DIZ) is under 2 mm.

And the Activity (Ehrlich [3])?
Its Activity is 21.8 ×10⁶ /ml.

And the IC50 [4]?
The IC50 was 30.2 µM.

And the MIC (Bacillus cereus)?
The MIC was 65.1 µM.

And the MIC (Aspergillus flavus)?
The MIC was 521 µM.

What about the Activity (Ehrlich [5]) of the same compound?
The Activity was 227.8%.

And the MIC (Escherichia coli)?
Its MIC is 65.1 µM (≈ 31.2 µg/mL).

What about the IC50 (WI-38) of the same compound?
Its IC50 is 74.5 µM.

And the IC50 (HeLa)?
Its IC50 is 4.63 µM.

And the IC50 (MCF7)?
The IC50 was 4.18 µM.

What about the MIC (Aspergillus fumigatus) of the same compound?
Its MIC is 521 µM.

What about the Activity (Mus musculus [6]) of the same compound?
Its Activity is 13.85 g/dL.

What about the IC50 (WISH) of the same compound?
Its IC50 is 60.1 µM.

And the MIC (Candida albicans)?
The MIC was 130 µM.

What about the Activity (Mus musculus [7]) of the same compound?
The Activity was 8.14 ×10³ /mm3.

What about the IC50 (HepG2) of the same compound?
Its IC50 is 4.89 µM.

What about the Activity (Ehrlich [8]) of the same compound?
Its Activity is 1.25 mL.

And the MSD (Ehrlich [9])?
Its MSD is 59 days.

And the MIC (Staphylococcus aureus)?
Its MIC is 65.1 µM.

Which Activity (Mus musculus [1]) does the source give for `CCOC(=O)C1=C(N/C=N/c2ncc(-c3ccccc3)s2)Nc2[nH]nc(C)c2C1c1ccc(N(C)C)cc1` (centres undefined) here?
The Activity was 4.85 ×10⁶ /mm3.

And the MIC (Pseudomonas aeruginosa)?
Its MIC is 474 µM.

What about the diameter of the inhibition zone (DIZ) [2] of the same compound?
Its diameter of the inhibition zone (DIZ) is 3 mm.

What about the Activity (Ehrlich [3]) of the same compound?
The Activity was 48.56 ×10⁶ /ml.

And the IC50 [4]?
Its IC50 is 74.2 µM.

And the MIC (Bacillus cereus)?
The MIC was 59.2 µM.

What about the MIC (Aspergillus flavus) of the same compound?
The MIC was 3790 µM.

And the Activity (Ehrlich [5])?
The Activity was 88.9%.

And the MIC (Escherichia coli)?
Its MIC is 474 µM (≈ 250 µg/mL).

And the IC50 (WI-38)?
The IC50 was 33.5 µM.

And the IC50 (HeLa)?
Its IC50 is 15.4 µM.

What about the IC50 (MCF7) of the same compound?
The IC50 was 10.1 µM.

And the MIC (Aspergillus fumigatus)?
The MIC was 3790 µM.

What about the Activity (Mus musculus [6]) of the same compound?
The Activity was 11.9 g/dL.

And the IC50 (WISH)?
Its IC50 is 29.5 µM.

What about the MIC (Candida albicans) of the same compound?
The MIC was 1900 µM.

What about the Activity (Mus musculus [7]) of the same compound?
Its Activity is 11.83 ×10³ /mm3.

What about the IC50 (HepG2) of the same compound?
The IC50 was 9.79 µM.

And the Activity (Ehrlich [8])?
Its Activity is 3.8 mL.

And the MSD (Ehrlich [9])?
The MSD was 34 days.

What about the MIC (Staphylococcus aureus) of the same compound?
The MIC was 59.2 µM.

Which results are given for `CCOC(=O)C1=C(N)Nc2[nH]nc(C)c2C1c1ccc(N(C)C)cc1` (centres undefined)?
Activity (Mus musculus [1]): 6.26 ×10⁶ /mm3; MIC (Pseudomonas aeruginosa): > 200 µg/mL; diameter of the inhibition zone (DIZ) [2]: < 2 mm; Activity (Ehrlich [3]): 18.64 ×10⁶ /ml; IC50 [4]: 32.4 µM; MIC (Bacillus cereus): > 200 µg/mL; MIC (Aspergillus flavus): > 200 µg/mL; Activity (Ehrlich [5]): 261.1%; MIC (Escherichia coli): 683 µM (≈ 233 µg/mL); IC50 (WI-38): 84 µM; IC50 (HeLa): 6.22 µM; IC50 (MCF7): 5.06 µM; MIC (Aspergillus fumigatus): > 200 µg/mL; Activity (Mus musculus [6]): 14.15 g/dL; IC50 (WISH): 94.6 µM; MIC (Candida albicans): > 200 µg/mL; Activity (Mus musculus [7]): 6.38 ×10³ /mm3; IC50 (HepG2): 4.24 µM; Activity (Ehrlich [8]): 1.05 mL; MSD (Ehrlich [9]): 65 days; MIC (Staphylococcus aureus): > 200 µg/mL

With `CCOC(=O)C1=C(NN=C(C(C)=O)C(C)=O)Nc2[nH]nc(C)c2C1c1ccc(N(C)C)cc1` (centres undefined) as the compound, how does the Activity (Mus musculus [1]) read?
Its Activity is 5.65 ×10⁶ /mm3.

And the MIC (Pseudomonas aeruginosa)?
The MIC was 552 µM.

What about the diameter of the inhibition zone (DIZ) [2] of the same compound?
The diameter of the inhibition zone (DIZ) was under 2 mm.

And the Activity (Ehrlich [3])?
The Activity was 27.53 ×10⁶ /ml.

What about the IC50 [4] of the same compound?
Its IC50 is 35.5 µM.

And the MIC (Bacillus cereus)?
The MIC was 552 µM.

What about the MIC (Aspergillus flavus) of the same compound?
The MIC was 1100 µM.

And the Activity (Ehrlich [5])?
The Activity was 172.2%.

What about the MIC (Escherichia coli) of the same compound?
The MIC was 552 µM (≈ 250 µg/mL).

And the IC50 (WI-38)?
The IC50 was 61.4 µM.

What about the IC50 (HeLa) of the same compound?
Its IC50 is 17 µM.

And the IC50 (MCF7)?
Its IC50 is 9.74 µM.

And the MIC (Aspergillus fumigatus)?
Its MIC is 4420 µM.

What about the Activity (Mus musculus [6]) of the same compound?
Its Activity is 13.45 g/dL.

What about the IC50 (WISH) of the same compound?
Its IC50 is 58.7 µM.

What about the MIC (Candida albicans) of the same compound?
Its MIC is 2210 µM.

And the Activity (Mus musculus [7])?
Its Activity is 8.84 ×10³ /mm3.

And the IC50 (HepG2)?
The IC50 was 8.48 µM.

And the Activity (Ehrlich [8])?
The Activity was 1.9 mL.

What about the MSD (Ehrlich [9]) of the same compound?
The MSD was 49 days.

What about the MIC (Staphylococcus aureus) of the same compound?
Its MIC is 2210 µM.
